The source of these data is publication PMC10146250, “Study on the liver Drug’s dominant metabolic enzymes for six effective components of the Huang qi Liuyi decoction” (Frontiers in Pharmacology, 2023).

The target in one data set is T1, CYP2E1 (Mus musculus, UniProt Q05421).
T1 construct: from tissue; host or cells: liver microsomes of control (db/m) mice
The data set can be described thus: Mouse liver microsomal incubation with clomethiazole, specific inhibitor of CYP2E1. The conditions noted are these: mouse liver microsomes 1 mg/mL, 60 min, 37°C, component 100 ng/mL, vs negative control without inhibitor. The class given is in vitro ADME. On the procedure: (§1) All reactions were performed in triplicate.

On the set-up of data set [1]: method as in Wang et al., 2022c. To be noted: oral administration of HQD, ref Wang et al., 2022c; cited from earlier work.
The target in the next data set is T2, CYP1A2 (Mus musculus, UniProt P00186).
T2 construct: from tissue; host or cells: liver microsomes of control (db/m) mice
T2 sequence (P00186 1-513): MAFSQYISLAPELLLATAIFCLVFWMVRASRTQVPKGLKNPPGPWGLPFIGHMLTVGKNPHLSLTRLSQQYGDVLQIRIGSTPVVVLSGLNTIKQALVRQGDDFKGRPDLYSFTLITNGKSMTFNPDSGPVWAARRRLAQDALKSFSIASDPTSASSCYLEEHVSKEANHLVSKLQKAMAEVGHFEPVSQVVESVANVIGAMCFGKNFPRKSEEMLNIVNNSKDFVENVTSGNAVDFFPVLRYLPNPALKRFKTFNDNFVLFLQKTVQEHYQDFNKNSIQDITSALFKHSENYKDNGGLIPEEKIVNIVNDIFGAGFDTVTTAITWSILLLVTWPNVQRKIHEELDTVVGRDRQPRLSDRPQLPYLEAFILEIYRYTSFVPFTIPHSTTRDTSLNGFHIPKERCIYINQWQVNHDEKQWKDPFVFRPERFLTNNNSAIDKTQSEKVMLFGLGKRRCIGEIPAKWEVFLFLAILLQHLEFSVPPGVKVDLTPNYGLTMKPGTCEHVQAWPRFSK
In words: Mouse liver microsomal incubation with α-naphthoflavone, specific inhibitor of CYP1A2. The class given is in vitro ADME. The conditions noted are these: mouse liver microsomes 1 mg/mL, 60 min, 37°C, component 100 ng/mL, vs negative control without inhibitor. As for the experimental part:
as §1
On the technique in general: Microsomes from liver hold many membrane-bound enzymes, among them those of drug oxidation.

Data set [2] is described as follows: Metabolic conversion in the liver microsomal incubation system without inhibitor. To be noted: for Metabolic conversion rate under different reaction times: 0, 15, 30, 45, 60, 90 min at 37°C; for Metabolic conversion rate at different protein concentrations: liver microsomal protein 0, 0.25, 0.5, 0.75, 1, 2 mg/mL, 60 min. On the procedure: Before the experiment, the mice were fasted for 12 h, and were euthanized after blood was taken from the eye sockets. The liver was quickly removed and perfused with pre-cooled saline through the hepatic portal vein until the liver was earthy yellow, washed three times with 1.15% KCl solution, wiped dry with filter paper, and then weighed. The liver was then cut up, homogenized with three times the volume of ethylene diamine tetraacetic acid (EDTA) in an ice bath, and centrifuged at 4°C for 10 min at 3,000 g. The supernatant was filtered, and the filtrate was centrifuged at 4°C for 20 min at 12,000 g. The supernatant was then centrifuged at 4°C for 45 min at 100,000 g, and the precipitate was resuspended in a resuspension solution (EDTA homogenate containing 20% glycerol). The protein concentration of the microsomes was determined using the BCA protein concentration determination kit, and the microsomes were aliquoted and pre-stored at −20°C for 60 min and transferred to −80°C for storage.
The total volume of the reaction was kept at 200 μL. The in vitro incubation system comprised of 50 μL liver microsomes (1 mg/mL), 50 μL specific inhibitor solution, 20 μL nicotinamide adenine dinucleotide phosphate (NADPH, 1 mmol/L), and 80 μL standard solution (100 ng/mL). The solution containing liver microsomes, specific inhibitors, and the standard solution was pre-incubated for 5 min at 37°C. NADPH, pre-incubated for 5 min at 37°C, was added to commence the reaction, and the solution was incubated for 60 min at 37°C on a thermostatic oscillator. At the end of the reaction, […] of ice-cold methanol containing the IS (the final concentrations of digoxin and puerarin were 0.745 μg/mL and 1 μg/mL, respectively) was added to terminate the reaction. The samples were vortexed for 1 min and centrifuged for 10 min (15,000 r/min). The contents of six active components in the supernatant were determined by HPLC-MS-MS. All reactions were performed in triplicate.
The six-component mixed standard solutions were incubated with the liver microsomal sample of different protein concentrations (0, 0.25, 0.5, 0.75, 1, 2 mg/mL) for 60 min, each with six replicates. Subsequently, samples were prepared according to the methods described in Section 2.6. The residual contents of the six effective components in each group were determined by HPLC-MS/MS to calculate the metabolic conversion rate.
The mixed standard solution containing the six components was incubated with mouse liver microsomes at 37°C for different time (0, 15, 30, 45, 60, 90 min), each with six replicates. Subsequently, samples were prepared according to the methods described in Section 2.6. The residual contents of the six effective components in each group were determined by HPLC-MS/MS to calculate the metabolic conversion rate.
The standard solution of astragaloside IV, glycyrrhizic acid, calycosin-glucuronide, formononetin, calycosin-7-O-β-D-glucoside, and ononin was added to phosphate-buffered saline (PBS, pH 7.0) as desired for dilution to produce a series of mixed solutions (50, 100, 250, 500, 1,000 ng/mL). Each mixed solution sample was incubated with 1.0 mg/mL liver microsomes for 60 min. The residual contents of the six effective components were determined by HPLC-MS/MS to calculate the metabolic conversion rate.
Α-naphthoflavone, quinidine, clomethiazole, ticlopidine, ketoconazole, and fluconazole were selected as specific inhibitors of CYP1A2, CYP2D22, CYP2E1, CYP2C37, CYP3A11, and CYP2C11, respectively ([El-Sherbeni and El-Kadi, 2014]; [Xu et al., 2016]). Forty-eight mice were randomly divided into eight groups of six mice each. The eight groups comprised six different specific inhibitor groups, a negative control group and a control group. For different specific inhibitor groups, mouse liver microsomes were incubated with related CYP450 enzyme specific inhibitors and mixed standard solutions.

The next data set relates to CYP2C11. In words: Mouse liver microsomal incubation with fluconazole, specific inhibitor of CYP2C11. The class given is in vitro ADME. The conditions noted are these: mouse liver microsomes 1 mg/mL, 60 min, 37°C, component 100 ng/mL, vs negative control without inhibitor. As for the experimental part:
as §1

The next data set has as its target T3, CYP2C37 (Mus musculus, UniProt P56654).
T3 construct: from tissue; host or cells: liver microsomes of control (db/m) mice
T3 sequence (P56654 21-490): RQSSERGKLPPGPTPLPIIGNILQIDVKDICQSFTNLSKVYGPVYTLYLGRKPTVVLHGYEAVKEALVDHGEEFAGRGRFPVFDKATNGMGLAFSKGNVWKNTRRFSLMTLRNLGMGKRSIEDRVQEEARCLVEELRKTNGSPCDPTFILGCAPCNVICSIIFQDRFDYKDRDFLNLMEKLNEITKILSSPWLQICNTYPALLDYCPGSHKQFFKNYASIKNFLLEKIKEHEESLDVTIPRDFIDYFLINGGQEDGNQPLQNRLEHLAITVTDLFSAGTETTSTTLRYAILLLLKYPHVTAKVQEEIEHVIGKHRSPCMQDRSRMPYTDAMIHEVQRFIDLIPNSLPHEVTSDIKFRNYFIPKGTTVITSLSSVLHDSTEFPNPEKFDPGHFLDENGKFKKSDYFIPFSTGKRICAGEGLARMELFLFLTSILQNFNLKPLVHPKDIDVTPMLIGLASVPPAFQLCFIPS
In words: Mouse liver microsomal incubation with ticlopidine, specific inhibitor of CYP2C37. To be noted: mouse liver microsomes 1 mg/mL, 60 min, 37°C, component 100 ng/mL, vs negative control without inhibitor. Format: in vitro ADME. As for the experimental part: as §1

For another data set, the system named is CYP3A11. The data set can be described thus: Mouse liver microsomal incubation with ketoconazole, specific inhibitor of CYP3A11. To be noted: mouse liver microsomes 1 mg/mL, 60 min, 37°C, component 100 ng/mL, vs negative control without inhibitor. The class given is in vitro ADME. As for the experimental part:
as §1

A further data set has as its system liver CYP450 enzymes. In words: Mouse liver microsomal incubation with the panel of specific CYP enzyme inhibitors. Format: in vitro ADME. To be noted: mouse liver microsomes 1 mg/mL, 60 min, 37°C, component 100 ng/mL; inhibitors of CYP1A2, CYP2D22, CYP2E1, CYP2C37, CYP3A11, CYP2C11. As for the experimental part: as §1

SMILES strings stand for the structures.

T1 sequence (Q05421 whole entry): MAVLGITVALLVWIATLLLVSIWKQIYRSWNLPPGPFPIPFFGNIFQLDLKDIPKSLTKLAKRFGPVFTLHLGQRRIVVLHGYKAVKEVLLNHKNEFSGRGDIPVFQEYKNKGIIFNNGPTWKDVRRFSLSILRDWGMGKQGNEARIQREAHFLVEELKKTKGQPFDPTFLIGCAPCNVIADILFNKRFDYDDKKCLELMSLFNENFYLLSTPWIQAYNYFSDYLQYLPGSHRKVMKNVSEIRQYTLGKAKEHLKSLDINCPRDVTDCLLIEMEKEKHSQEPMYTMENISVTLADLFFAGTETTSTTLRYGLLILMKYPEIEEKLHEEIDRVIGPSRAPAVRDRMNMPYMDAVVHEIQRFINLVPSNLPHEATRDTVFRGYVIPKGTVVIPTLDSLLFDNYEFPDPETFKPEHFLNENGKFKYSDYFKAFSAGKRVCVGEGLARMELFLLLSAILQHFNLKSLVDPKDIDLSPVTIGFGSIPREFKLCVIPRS

Turning to `COc1ccc(-c2coc3cc(O)ccc3c2=O)cc1O`, the “Effect of clomethiazole (CYP2E1 inhibitor) on metabolism of the component (residual content)” value at CYP2E1 is listed as “prevented the metabolism”. Further, the “Absorption and elimination in mice with diabetic nephropathy” value (“Absorption and elimination in mice” below) in data set [1] was “greater absorption and delayed elimination”. Also, the “Effect of α-naphthoflavone (CYP1A2 inhibitor) on metabolism of the component (residual content)” value on CYP1A2 is “prevented the metabolism”. Besides, in data set [2], the “Metabolic conversion rate under different reaction times” value was “increased with time, however, saturated after 60 min” and the “Metabolic conversion rate at different protein concentrations” value is “initially increased with the increase in protein concentration”.

As for `CC(C)(O)[C@@H]1CC[C@](C)([C@H]2[C@@H](O)C[C@@]3(C)[C@@H]4C[C@H](O[C@@H]5O[C@H](CO)[C@@H](O)[C@H](O)[C@H]5O)[C@H]5C(C)(C)[C@@H](O[C@@H]6OC[C@@H](O)[C@H](O)[C@H]6O)CC[C@@]56C[C@@]46CC[C@]23C)O1` [Astragaloside IV], the “Effect of fluconazole (CYP2C11 inhibitor) on metabolism of the component (residual content)” value with CYP2C11 is recorded as “prevented the metabolism”. Moreover, the “Effect of ticlopidine (CYP2C37 inhibitor) on metabolism of the component (residual content)” value on CYP2C37 was “prevented the metabolism”. Also, the “Absorption and elimination in mice” value in data set [1] was “greater absorption and delayed elimination”. Also, in data set [2], the “Metabolic conversion rate under different reaction times” value was “increased with time, however, saturated after 60 min” and the “Metabolic conversion rate at different protein concentrations” value was “initially increased with the increase in protein concentration”.

On to `COc1ccc(-c2coc3cc(O)ccc3c2=O)cc1` [Formononetin], for which, in the data set with CYP2C11, the “Effect of fluconazole (CYP2C11 inhibitor) on metabolism of the component (residual content)” value is “prevented the metabolism”. In addition, the “Absorption and elimination in mice” value in data set [1] was “greater absorption and delayed elimination”. Besides, in the data set with CYP3A11, the “Effect of ketoconazole (CYP3A11 inhibitor) on metabolism of the component (residual content)” value was “prevented the metabolism”. Besides, in data set [2], the “Metabolic conversion rate under different reaction times” value is “increased with time, however, saturated after 60 min” and the “Metabolic conversion rate at different protein concentrations” value is “initially increased with the increase in protein concentration”.

Take `COc1ccc(-c2coc3cc(O[C@@H]4O[C@H](CO)[C@@H](O)[C@H](O)[C@H]4O)ccc3c2=O)cc1O` [Calycosin-7-O-β-D-glucoside]: the “Absorption and elimination in mice” value in data set [1] was “greater absorption and delayed elimination”. Besides, in the data set with liver CYP450 enzymes, the “Effect of the specific CYP enzyme inhibitors on metabolism of the component” value was “not affected”. Moreover, in data set [2], the “Metabolic conversion rate under different reaction times” value is on record as “increased with time, however, saturated after 60 min” and the “Metabolic conversion rate at different protein concentrations” value is given as “initially increased with the increase in protein concentration”.

As for `COc1ccc(-c2coc3cc(O[C@@H]4O[C@H](CO)[C@@H](O)[C@H](O)[C@H]4O)ccc3c2=O)cc1` [Ononin], the “Absorption and elimination in mice” value in data set [1] was “greater absorption and delayed elimination”. Besides, the “Effect of the specific CYP enzyme inhibitors on metabolism of the component” value in the data set with liver CYP450 enzymes is “not affected”. Moreover, in data set [2], the “Metabolic conversion rate under different reaction times” value is listed as “increased with time, however, saturated after 60 min” and the “Metabolic conversion rate at different protein concentrations” value was “initially increased with the increase in protein concentration”.

Turning to `CC1(C)[C@@H](O[C@H]2O[C@H](C(=O)O)[C@@H](O)[C@H](O)[C@H]2O[C@@H]2O[C@H](C(=O)O)[C@@H](O)[C@H](O)[C@H]2O)CC[C@]2(C)[C@H]3C(=O)C=C4[C@@H]5C[C@@](C)(C(=O)O)CC[C@]5(C)CC[C@@]4(C)[C@]3(C)CC[C@@H]12` [Glycyrrhizic acid], at CYP2C37, the “Effect of ticlopidine (CYP2C37 inhibitor) on metabolism of the component (residual content)” value is on record as “prevented the metabolism”. In addition, the “Absorption and elimination in mice” value in data set [1] was “greater absorption and delayed elimination”. In addition, the “Effect of ketoconazole (CYP3A11 inhibitor) on metabolism of the component (residual content)” value with CYP3A11 is “prevented the metabolism”. Also, in data set [2], the “Metabolic conversion rate under different reaction times” value is “increased with time, however, saturated after 60 min” and the “Metabolic conversion rate at different protein concentrations” value is given as “initially increased with the increase in protein concentration”.
